Assay results taken from patent US8247211B2, “Glycopeptide antibiotics” (American Cyanamid Company, priority 2001, dated 2012).
Numbered stars: 1 amine (or outer) side, 2 acyl side, 3 side chain; on linkers, the order of the positions; unused ones are H or OH. Square brackets hold non-standard residues; d marks the D form. Peptide text beside a SMILES is read from it. ξ: configuration not given here. X3 = CC1(C)OCC2OC(N3C(=N)NCC3C(O)C(N[*:1])C(=O)[*:2])C3OC(C)(C)OC3C2O1; ξEnduracididine(βξ-OH,4'ξ) = N=C1NCC(C(O)C(N)C(=O)O)N1; ξPhe(βξ-Me) = CC(c1ccccc1)C(N)C(=O)O

Experiments:
Test in all cases: In vitro antibacterial evaluation: minimum inhibitory concentration (MIC), broth dilution method
Type in all cases: cell-based
Conditions in all cases: 18 hours at 35° C.
[1] = system: Escherichia coli
Outline: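 Test strains, among them recent clinical isolates carrying methicillin, penicillin and/or vancomycin resistance, were inoculated at 5×10^5 CFU/mL. A broth dilution series spanning 64-0.06 μg/mL in Muller-Hinton II […] (NCCLS M7-A2) defined the MIC as the lowest growth-inhibiting concentration.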

[2] = system: Streptococcus sp.
Outline: (§1)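 NCCLS M7-A2 broth dilution; Muller-Hinton II […]; 5×10^5 CFU/mL; 64-0.06 μg/mL. MIC = lowest concentration with no growth.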

[3] = system: Enterococcus sp.
Outline: as §1

[4] = system: Staphylococcus sp.
Outline: as §1

CC(c1ccccc1)C1NC(=O)CNC(=O)C(CO)NC(=O)C(C(O)C2CNC(=N)N2C2OC3COC(C)(C)OC3C3OC(C)(C)OC32)NC(=O)C(C(O)C2CNC(=N)N2)NC(=O)C(Cc2ccc(O)cc2)NC1=O (stereo not drawn) [Example 247, Cyclo[glycyl-β-methylphenylalanyltyrosyl-3-(2-iminoimidazolidin-4-yl)seryl-3-(2,3:4,6-diisopropylidenehexopyranosyl)-2-iminoimidazolidin-4-ylserylseryl]] (cyclo(G[ξPhe(βξ-Me)]Y[ξEnduracididine(βξ-OH,4'ξ)][X3]S); configuration not given here)
>64 µg/mL: MIC Escherichia coli (ATCC 25922) ([1]; Escherichia coli (ATCC 25922)) | MIC Escherichia coli (GC 4559) ([1]; Escherichia coli (GC 4559)) | MIC Escherichia coli (GC 4560) ([1]; Escherichia coli (GC 4560)) | MIC Streptococcus agalactiae (GC 4564) ([2]; Streptococcus agalactiae (GC 4564)) | MIC Streptococcus pneumoniae (ATCC 6301) ([2]; Streptococcus pneumoniae (ATCC 6301)) | MIC Streptococcus pneumoniae (GC 1894) ([2]; Streptococcus pneumoniae (GC 1894)) | MIC Streptococcus pneumoniae (GC 4565) ([2]; Streptococcus pneumoniae (GC 4565)) | MIC Streptococcus pyogenes (GC 4563) ([2]; Streptococcus pyogenes (GC 4563)) | MIC Enterococcus avium (GC 4558) ([3]; Enterococcus avium (GC 4558)) | MIC Enterococcus faecalis (ATCC 29212) ([3]; Enterococcus faecalis (ATCC 29212)) | MIC Enterococcus faecalis (GC 2242) ([3]; Enterococcus faecalis (GC 2242)) | MIC Enterococcus faecalis (GC 2691) ([3]; Enterococcus faecalis (GC 2691)) | MIC Enterococcus faecalis (GC 3059) ([3]; Enterococcus faecalis (GC 3059)) | MIC Enterococcus faecalis (GC 4552) ([3]; Enterococcus faecalis (GC 4552)) | MIC Enterococcus faecalis (GC 4553) ([3]; Enterococcus faecalis (GC 4553)) | MIC Enterococcus faecalis (GC 4554) ([3]; Enterococcus faecalis (GC 4554)) | MIC Enterococcus faecalis (GC 6189) ([3]; Enterococcus faecalis (GC 6189)) | MIC Enterococcus faecium (GC 2243) ([3]; Enterococcus faecium (GC 2243)) | MIC Enterococcus faecium (GC 4556) ([3]; Enterococcus faecium (GC 4556)) | MIC Enterococcus faecium (GC 4557) ([3]; Enterococcus faecium (GC 4557)) | MIC Coagulase Negative Staphylococcus (GC 4547) ([4]; Coagulase Negative Staphylococcus (GC 4547)) | MIC Coagulase Negative Staphylococcus (GC 4548) ([4]; Coagulase Negative Staphylococcus (GC 4548)) | MIC Coagulase Negative Staphylococcus (GC 4549) ([4]; Coagulase Negative Staphylococcus (GC 4549)) | MIC Coagulase Negative Staphylococcus (GC 4551) ([4]; Coagulase Negative Staphylococcus (GC 4551)) | MIC Coagulase Negative Staphylococcus (GC 6257) ([4]; Coagulase Negative Staphylococcus (GC 6257)) | MIC Staphylococcus aureus (ATCC 29213) ([4]; Staphylococcus aureus (ATCC 29213)) | MIC Staphylococcus aureus (GC 1131) ([4]; Staphylococcus aureus (GC 1131)) | MIC Staphylococcus aureus (GC 3051) ([4]; Staphylococcus aureus (GC 3051)) | MIC Staphylococcus aureus (GC 3053) ([4]; Staphylococcus aureus (GC 3053)) | MIC Staphylococcus aureus (GC 4541) ([4]; Staphylococcus aureus (GC 4541)) | MIC Staphylococcus aureus (GC 4542) ([4]; Staphylococcus aureus (GC 4542)) | MIC Staphylococcus aureus (GC 4544) ([4]; Staphylococcus aureus (GC 4544)) | MIC Staphylococcus aureus (GC 4545) ([4]; Staphylococcus aureus (GC 4545)) | MIC Staphylococcus aureus-SMITH (GC 4543) ([4]; Staphylococcus aureus-SMITH (GC 4543)) | MIC Staphylococcus haemolyticus (GC 4546) ([4]; Staphylococcus haemolyticus (GC 4546))
